From ChEMBL document CHEMBL1201862, “PubChem BioAssay data set” (2004)
One block for each molecule: values may come before it. Active and inactive are the calls of the source.

Tests used:
[1] = target: T1, Rac GTPase-activating protein 1 (Homo sapiens, UniProt Q9H0H5); test: MgcRacGAP GTPase-activating activity inhibitors, confirmation, biochemical, ADP Hunter fluorescence, primary and confirmatory (AID 624330); format: functional
T1 sequence (Q9H0H5 whole entry): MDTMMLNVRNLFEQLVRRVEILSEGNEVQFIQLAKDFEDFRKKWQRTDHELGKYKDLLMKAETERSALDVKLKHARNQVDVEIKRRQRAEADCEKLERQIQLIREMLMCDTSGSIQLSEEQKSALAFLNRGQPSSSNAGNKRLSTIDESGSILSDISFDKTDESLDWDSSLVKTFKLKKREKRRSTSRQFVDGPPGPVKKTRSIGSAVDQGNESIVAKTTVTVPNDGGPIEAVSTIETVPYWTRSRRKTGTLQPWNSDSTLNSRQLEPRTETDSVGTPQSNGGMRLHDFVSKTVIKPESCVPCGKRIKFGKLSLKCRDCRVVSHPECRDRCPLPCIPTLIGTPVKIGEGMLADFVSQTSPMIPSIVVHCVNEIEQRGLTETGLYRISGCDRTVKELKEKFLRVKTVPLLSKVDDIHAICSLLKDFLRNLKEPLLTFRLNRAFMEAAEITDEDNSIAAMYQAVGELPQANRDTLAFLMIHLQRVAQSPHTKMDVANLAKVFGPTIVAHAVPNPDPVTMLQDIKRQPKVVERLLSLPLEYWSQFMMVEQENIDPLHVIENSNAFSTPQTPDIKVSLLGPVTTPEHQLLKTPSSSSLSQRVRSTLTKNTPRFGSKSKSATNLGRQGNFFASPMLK

[2] = target: NAD-dependent protein deacylase sirtuin-5, mitochondrial (Homo sapiens, UniProt Q9NXA8); test: SIRT5 desuccinylase inhibitors, dose response, biochemical, fluorescence imaging, cherry-pick, set 5 (AID 720591);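 note: desuccinylation of succinyl peptide AMC substrate read as fluorescence after trypsin release; potency of inhibitors that lower fluorescence and may act on trypsin instead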
Sequence of NAD-dependent protein deacylase sirtuin-5, mitochondrial (Q9NXA8 whole entry): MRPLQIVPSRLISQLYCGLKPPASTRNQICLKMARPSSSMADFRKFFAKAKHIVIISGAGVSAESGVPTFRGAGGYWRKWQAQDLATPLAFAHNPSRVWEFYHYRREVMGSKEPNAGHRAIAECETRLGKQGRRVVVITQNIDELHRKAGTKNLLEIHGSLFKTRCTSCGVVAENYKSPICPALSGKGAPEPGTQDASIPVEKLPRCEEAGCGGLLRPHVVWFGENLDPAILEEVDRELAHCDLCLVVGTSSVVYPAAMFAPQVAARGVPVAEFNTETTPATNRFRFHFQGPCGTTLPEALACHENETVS

[3] = target: G-protein coupled receptor 55 (Homo sapiens, UniProt Q9Y2T6); test: GPR55 antagonists blocking LPI-driven arrestin recruitment, primary screen, imaging, U2OS, beta-arrestin-GFP, LPI agonist (AID 2013); format: functional;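 note: antagonist potency measured as reduced agonist-driven arrestin aggregation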
Sequence of G-protein coupled receptor 55 (Q9Y2T6 whole entry): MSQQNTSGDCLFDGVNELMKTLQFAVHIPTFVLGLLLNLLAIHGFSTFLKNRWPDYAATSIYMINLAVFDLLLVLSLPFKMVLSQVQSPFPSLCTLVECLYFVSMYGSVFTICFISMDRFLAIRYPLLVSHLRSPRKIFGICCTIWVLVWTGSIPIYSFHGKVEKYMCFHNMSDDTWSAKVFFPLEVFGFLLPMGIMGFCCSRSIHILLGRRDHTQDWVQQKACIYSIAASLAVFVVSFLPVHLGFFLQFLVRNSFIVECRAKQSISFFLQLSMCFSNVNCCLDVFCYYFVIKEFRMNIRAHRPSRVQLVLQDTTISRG

Coagulation factor XII = target: T2, Coagulation factor XII (Homo sapiens, UniProt P00748); format: functional;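 note: activated factor XIIa alpha cleaving a fluorogenic AMC peptide substrate; inhibitor potency from loss of enzyme activity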
T2 sequence (P00748 whole entry): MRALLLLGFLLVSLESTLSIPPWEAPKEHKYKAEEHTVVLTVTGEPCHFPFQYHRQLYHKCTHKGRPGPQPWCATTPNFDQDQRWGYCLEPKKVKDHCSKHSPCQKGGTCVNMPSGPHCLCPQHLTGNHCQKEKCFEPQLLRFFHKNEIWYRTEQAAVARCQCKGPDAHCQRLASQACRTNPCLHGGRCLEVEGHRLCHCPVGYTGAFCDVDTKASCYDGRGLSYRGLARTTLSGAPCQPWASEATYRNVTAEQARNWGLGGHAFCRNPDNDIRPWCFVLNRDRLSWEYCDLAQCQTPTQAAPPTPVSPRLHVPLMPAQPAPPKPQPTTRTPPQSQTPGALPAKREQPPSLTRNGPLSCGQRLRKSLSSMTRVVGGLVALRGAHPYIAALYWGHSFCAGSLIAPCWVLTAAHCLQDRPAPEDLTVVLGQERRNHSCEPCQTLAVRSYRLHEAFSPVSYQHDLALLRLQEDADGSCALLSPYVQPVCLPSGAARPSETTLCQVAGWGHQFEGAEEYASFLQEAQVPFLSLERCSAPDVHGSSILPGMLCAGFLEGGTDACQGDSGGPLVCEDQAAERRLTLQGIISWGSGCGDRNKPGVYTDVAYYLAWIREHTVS

INS1 = test: beta cell apoptosis inhibitors, cytokine rescue, dose response, luminescence, retest (AID 449756); format: functional, cell-based; conditions: Rattus norvegicus;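 note: cell death triggered by IL-1 beta plus TNF-alpha plus IFN-gamma mixture; protective hits raise ATP signal compared with cytokine alone wells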
Genome polyprotein = Genome polyprotein (dengue virus type 2, UniProt P29990); test: Dengue-2 NS5 methyltransferase inhibitors, primary screen, biochemical, confirmation dose response (AID 588689); format: functional
Sequence of Genome polyprotein (P29990 2492-3391 limits assumed): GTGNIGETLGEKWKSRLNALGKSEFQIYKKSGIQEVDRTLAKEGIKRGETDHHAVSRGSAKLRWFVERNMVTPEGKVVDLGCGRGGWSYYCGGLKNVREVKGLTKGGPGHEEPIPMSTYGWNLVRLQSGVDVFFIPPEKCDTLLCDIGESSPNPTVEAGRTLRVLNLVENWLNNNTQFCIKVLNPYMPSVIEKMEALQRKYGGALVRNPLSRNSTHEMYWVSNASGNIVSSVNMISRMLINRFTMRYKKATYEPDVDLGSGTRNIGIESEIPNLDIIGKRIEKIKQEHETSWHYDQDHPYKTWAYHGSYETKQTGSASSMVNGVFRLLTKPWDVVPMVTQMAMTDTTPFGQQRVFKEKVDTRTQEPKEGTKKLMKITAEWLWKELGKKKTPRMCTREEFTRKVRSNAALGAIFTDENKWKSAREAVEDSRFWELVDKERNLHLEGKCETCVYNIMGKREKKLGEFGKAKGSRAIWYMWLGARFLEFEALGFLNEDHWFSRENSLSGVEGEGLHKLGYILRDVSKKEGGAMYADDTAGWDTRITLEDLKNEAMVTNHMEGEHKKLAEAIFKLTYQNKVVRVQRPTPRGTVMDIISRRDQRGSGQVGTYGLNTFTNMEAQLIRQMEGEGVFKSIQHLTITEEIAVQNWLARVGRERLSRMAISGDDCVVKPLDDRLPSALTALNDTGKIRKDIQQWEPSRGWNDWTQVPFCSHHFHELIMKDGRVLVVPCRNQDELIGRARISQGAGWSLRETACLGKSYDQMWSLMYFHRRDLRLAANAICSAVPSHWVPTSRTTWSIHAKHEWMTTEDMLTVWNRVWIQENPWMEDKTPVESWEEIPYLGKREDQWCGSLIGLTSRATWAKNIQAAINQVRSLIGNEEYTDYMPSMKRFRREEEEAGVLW

[4] = Shn3 3'UTR reporter inhibitors, dose response, cell-based, Clone20 osteoblasts, firefly luciferase, cherry-picked (AID 624132); format: functional;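 note: firefly luciferase luminescence from reporter carrying the Shn3 3'UTR in osteoblasts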
[5] = HepG2 cell cytotoxicity, dose response, cytotoxicity control for Shn3 inhibitor project, CellTiter-Glo, cherry-picked (AID 624134); format: functional, cell-based
[6] = control 3'UTR Renilla luciferase suppression, dose response, counter-screen for Shn3 inhibitor project, cell-based, Clone20-Shn3RL, cherry-picked (AID 624133); format: functional
Protein Wnt-3a = Protein Wnt-3a (Mus musculus, UniProt P27467); test: Wnt3a-driven reporter signaling inhibition, dose response, selectivity assay for Gli-SUFU antagonist project, Wnt-LIGHT cells, luminescence (AID 651570); format: functional; conditions: read-out: IC50_Mean;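 note: Wnt-LIGHT reporter cells stimulated with conditioned medium from Wnt3a-producing cells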
Sequence of Protein Wnt-3a (P27467 whole entry, the tested form may be a part): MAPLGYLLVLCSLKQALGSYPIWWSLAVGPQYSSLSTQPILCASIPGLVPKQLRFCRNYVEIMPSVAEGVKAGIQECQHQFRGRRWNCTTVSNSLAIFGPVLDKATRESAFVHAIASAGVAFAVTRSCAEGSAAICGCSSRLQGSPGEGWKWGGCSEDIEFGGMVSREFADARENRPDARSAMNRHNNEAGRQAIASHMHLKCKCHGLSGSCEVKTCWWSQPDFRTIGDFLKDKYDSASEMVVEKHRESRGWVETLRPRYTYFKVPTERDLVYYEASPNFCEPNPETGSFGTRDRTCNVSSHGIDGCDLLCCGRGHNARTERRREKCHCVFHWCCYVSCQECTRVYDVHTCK

[7] = inhibitors of clade B AD8 Env fusion, dose response, cell-based, cherry-pick (AID 652062); format: functional;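 note: luciferase signal from cell-cell fusion driven by HIV-1 clade B AD8 Env; potency is for inhibitors of fusion seen as a drop in luminescence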
Beta-galactosidase [8] = target: T3, Beta-galactosidase (Escherichia coli, UniProt Q8VNN2); test: PubChem AID 485352; format: functional
T3 sequence (Q8VNN2 whole entry): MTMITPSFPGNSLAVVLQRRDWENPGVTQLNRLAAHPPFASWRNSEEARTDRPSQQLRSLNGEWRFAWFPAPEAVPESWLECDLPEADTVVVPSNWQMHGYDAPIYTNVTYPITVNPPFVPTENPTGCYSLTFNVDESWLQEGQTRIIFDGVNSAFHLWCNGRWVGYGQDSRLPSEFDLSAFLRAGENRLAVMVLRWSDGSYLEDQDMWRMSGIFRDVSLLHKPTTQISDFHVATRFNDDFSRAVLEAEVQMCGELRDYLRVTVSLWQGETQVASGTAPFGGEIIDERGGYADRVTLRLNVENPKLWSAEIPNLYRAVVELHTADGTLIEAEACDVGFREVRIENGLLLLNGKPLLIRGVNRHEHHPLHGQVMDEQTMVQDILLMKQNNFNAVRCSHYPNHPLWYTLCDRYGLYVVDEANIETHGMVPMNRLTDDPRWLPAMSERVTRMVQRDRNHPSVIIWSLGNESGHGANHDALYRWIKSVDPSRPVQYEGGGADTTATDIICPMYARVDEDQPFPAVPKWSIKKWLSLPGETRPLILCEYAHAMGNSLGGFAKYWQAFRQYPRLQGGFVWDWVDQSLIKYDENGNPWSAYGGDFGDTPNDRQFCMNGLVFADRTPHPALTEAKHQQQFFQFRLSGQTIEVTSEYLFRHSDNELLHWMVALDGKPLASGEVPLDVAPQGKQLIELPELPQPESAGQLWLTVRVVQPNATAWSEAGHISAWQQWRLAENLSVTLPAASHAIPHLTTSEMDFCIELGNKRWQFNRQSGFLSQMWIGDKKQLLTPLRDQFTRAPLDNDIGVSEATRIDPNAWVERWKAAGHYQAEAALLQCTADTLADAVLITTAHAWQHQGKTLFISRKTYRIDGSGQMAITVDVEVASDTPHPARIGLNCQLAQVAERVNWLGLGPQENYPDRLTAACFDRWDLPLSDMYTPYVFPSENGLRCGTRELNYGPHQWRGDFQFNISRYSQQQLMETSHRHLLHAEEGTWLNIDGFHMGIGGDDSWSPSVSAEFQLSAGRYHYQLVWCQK

[9] = target: T4, Type-1 angiotensin II receptor (Homo sapiens, UniProt P30556); test: AT1 receptor antagonists, dose response, selectivity assay for APJ receptor antagonist project, cell-based, uHTS hits (AID 463214); format: functional;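 note: antagonist potency against angiotensin II stimulated AT1 response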
T4 sequence (P30556 whole entry): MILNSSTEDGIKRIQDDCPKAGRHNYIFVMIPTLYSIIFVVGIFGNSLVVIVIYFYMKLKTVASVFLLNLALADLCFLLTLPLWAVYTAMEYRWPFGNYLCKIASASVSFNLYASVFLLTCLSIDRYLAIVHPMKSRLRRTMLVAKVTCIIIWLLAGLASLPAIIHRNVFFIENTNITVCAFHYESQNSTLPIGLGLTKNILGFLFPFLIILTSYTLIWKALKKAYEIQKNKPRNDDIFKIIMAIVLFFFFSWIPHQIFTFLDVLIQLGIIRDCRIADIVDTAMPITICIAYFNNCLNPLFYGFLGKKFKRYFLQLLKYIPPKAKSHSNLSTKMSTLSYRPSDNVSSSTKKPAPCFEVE

[10] = inhibitors of intracellular T. cruzi replication, confirmation, NIH3T3 host cells, beta-gal luminescence (AID 2044); format: functional, cell-based;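 note: intracellular parasites grown in NIH/3T3 mouse fibroblasts as host cells; luminescent beta-galactosidase reporter signal from transgenic T. cruzi replicating inside host cells; inhibitors lower the luminescence signal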
[11] = cytotoxicity toward NIH3T3 fibroblasts, dose response, counter-screen, cell-based, ATP luminescence, mouse fibroblasts (AID 2010); format: functional;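 note: cells exposed to compound for about 90 hours before reading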
Beta-galactosidase [12] = target: T3, Beta-galactosidase; test: beta-galactosidase enzyme inhibitors and activators, dose response, artefact control for CCR6 antagonist project, biochemical, E. coli enzyme, set 3 (AID 504712); format: functional
Protein skinhead-1 = target: T5, Protein skinhead-1 (Caenorhabditis elegans, UniProt P34707); format: functional
T5 sequence (P34707 whole entry): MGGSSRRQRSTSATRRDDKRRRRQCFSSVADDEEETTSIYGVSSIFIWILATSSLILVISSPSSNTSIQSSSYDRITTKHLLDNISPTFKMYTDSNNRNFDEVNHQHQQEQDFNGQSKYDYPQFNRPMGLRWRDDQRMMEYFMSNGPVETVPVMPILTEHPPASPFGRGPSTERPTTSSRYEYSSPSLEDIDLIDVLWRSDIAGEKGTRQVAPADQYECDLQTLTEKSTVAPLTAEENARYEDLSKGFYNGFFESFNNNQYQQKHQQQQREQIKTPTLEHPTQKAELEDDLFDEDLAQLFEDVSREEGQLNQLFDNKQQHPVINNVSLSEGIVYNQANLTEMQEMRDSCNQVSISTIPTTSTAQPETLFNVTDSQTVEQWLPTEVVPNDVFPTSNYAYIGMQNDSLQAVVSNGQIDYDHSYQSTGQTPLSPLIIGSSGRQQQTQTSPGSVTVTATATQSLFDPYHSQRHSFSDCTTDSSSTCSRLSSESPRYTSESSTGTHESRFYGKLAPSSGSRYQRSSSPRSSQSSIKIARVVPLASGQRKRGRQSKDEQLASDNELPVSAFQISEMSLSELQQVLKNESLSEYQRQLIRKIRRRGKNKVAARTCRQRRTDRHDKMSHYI

[13] = target: Glucose-6-phosphate 1-dehydrogenase (Homo sapiens, UniProt P11413); test: human G6PD enzyme inhibitors, dose response, selectivity assay for P. falciparum G6PD inhibitor project, biochemical, fluorescence (AID 504792); format: functional
Sequence of Glucose-6-phosphate 1-dehydrogenase (P11413 whole entry): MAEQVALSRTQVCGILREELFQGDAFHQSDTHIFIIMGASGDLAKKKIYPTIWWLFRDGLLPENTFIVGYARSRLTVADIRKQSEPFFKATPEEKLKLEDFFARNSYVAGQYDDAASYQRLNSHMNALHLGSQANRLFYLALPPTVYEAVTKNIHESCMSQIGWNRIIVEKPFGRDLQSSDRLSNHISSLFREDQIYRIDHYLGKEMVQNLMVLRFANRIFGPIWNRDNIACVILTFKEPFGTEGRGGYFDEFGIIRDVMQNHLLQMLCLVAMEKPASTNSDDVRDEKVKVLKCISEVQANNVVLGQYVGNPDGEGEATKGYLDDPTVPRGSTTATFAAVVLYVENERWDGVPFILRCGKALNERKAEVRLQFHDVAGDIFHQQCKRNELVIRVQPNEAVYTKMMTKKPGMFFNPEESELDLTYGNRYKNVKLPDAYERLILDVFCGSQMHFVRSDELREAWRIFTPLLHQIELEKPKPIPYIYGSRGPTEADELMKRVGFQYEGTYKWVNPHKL

- IC50 [1]: 42.4 µM (active)
- AC50 [2]: 21.6 µM (active)
SMILES: COc1ccccc1-c1c[nH]nc1-c1ccc(O)cc1O

- IC50 [3]: 0.509 µM (active)
SMILES: CN(C)c1ccnc(N(Cc2ccccc2)Cc2ccccc2)c1C#N

- AC50 [2]: > 30 µM (inactive)
SMILES: Cc1c(-c2ccc(OCCN3CCOCC3)cc2)c(=O)oc2ccc3ccccc3c12

SMILES: O=C(O)c1ccc(/C=C2\SC(=S)N(Nc3ccccc3)C2=O)cc1
- IC50 (Coagulation factor XII): > 50 µM (inactive)
- AC50 (INS1): 3.85 µM (active)
- IC50 (Genome polyprotein): 58 µM (active)

- IC50 [3]: 2.3 µM (active)
SMILES: CC(C)C[C@H](NC(=O)c1[nH]cnc1C(=O)NCc1ccc(CNC(=O)OC(C)(C)C)cc1)C(=O)OCc1ccccc1

SMILES: O=C(c1cccc(S(=O)(=O)N2CCN(c3ccccc3)CC2)c1)N1CCCC(C(F)(F)F)C1 (centres undefined)
- AC50 [4]: 2.68 µM (active)
- AC50 [5]: 37.3 µM (active)
- AC50 [6]: 0.475 µM (active)
- IC50 (Protein Wnt-3a): 41.8 µM (inactive)
- AC50 [7]: 6.01 µM (active)

- EC50 (Beta-galactosidase [8]): > 40 µM (inactive)
- IC50 [9]: 35.3 µM (not active)
SMILES: CC1=NN(C(N)=S)C(=O)C1N=Nc1ccc([N+](=O)[O-])cc1 (centres undefined)

SMILES: O=[N+]([O-])c1ccc(/C=C/C2=NN(c3ccccc3)C(c3ccco3)C2)o1 (centres undefined)
- EC50 [10]: 0.427 µM (active)
- EC50 [11]: 18.5 µM (active)
- IC50 (Beta-galactosidase [12]): 41 µM (inactive)
- IC50 (Protein skinhead-1): > 100 µM (inactive)

SMILES: Cc1c(C(C)C)c(=O)n(-c2ccc(S(=O)(=O)NC3CCCCC3)cc2)n1C
- AC50 [4]: 1.06 µM (active)
- AC50 [5]: 3.93 µM (active)
- AC50 [6]: 1.76 µM (active)
- IC50 (Protein Wnt-3a): 2.91 µM (active)

SMILES: Cc1ccccc1-n1c(-c2ccc3ccccc3n2)n[nH]c1=S
- IC50 [13]: > 80 µM (inactive)
